Converted amounts (≈) assume the structure as drawn. Each block holds one molecule with its values, some of them ahead of it.
Key:
[1] = Intrinsic clearance in human liver microsomes; type: ADME, Microsome; details: read-out: CLH
[2] = Thermodynamic solubility in pH 7 buffer; type: physicochemical; details: read-out: Therm_solubility
[3] = Intrinsic clearance in rat liver microsomes; type: ADME, Microsome; details: read-out: CLH
[4] = Intrinsic clearance in dog liver microsomes; type: ADME, Canis lupus familiaris, Microsome; details: read-out: CLH
[5] = Lipophilicity, log D of compound; type: physicochemical; details: octanol/water
[6] = Modulation of capsid assembly in HBV infected in human HepG2.2.15 cells assessed as inhibition of viral DNA replication
[7] = target: Core antigen (Hepatitis B virus) (UniProt Q03732); test: Ratio of EC50 for modulation of capsid assembly in HBV infected in human HepG2.2.15 cells in presence of 40% normal human serum to EC50 for modulation of capsid assembly in HBV infected in human HepG2.2.15 cells in absence of 40% normal human serum; type: cell-based
Chain of Core antigen (Hepatitis B virus) (Q03732 as listed by the source): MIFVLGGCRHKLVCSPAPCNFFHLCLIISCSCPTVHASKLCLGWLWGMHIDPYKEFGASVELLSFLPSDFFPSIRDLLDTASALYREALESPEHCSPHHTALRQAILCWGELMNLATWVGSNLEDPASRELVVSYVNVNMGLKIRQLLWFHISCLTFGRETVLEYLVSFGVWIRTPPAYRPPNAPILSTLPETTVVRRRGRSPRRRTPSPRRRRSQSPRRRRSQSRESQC

[8] = Cmax in Beagle dog at 2.5 mg/kg, po; type: ADME, organism-based, Canis lupus familiaris; design: dose 2.5 mg/kg, route po; details: in vivo
[9] = Oral bioavailability in rat at 5 mg/kg; type: ADME, organism-based; details: in vivo
[10] = Intrinsic clearance in mouse hepatocytes; type: ADME, cell-based, Hepatocyte; details: read-out: CLH
[11] = Tmax in rat at 5 mg/kg, po; type: ADME, organism-based; details: in vivo
[12] = Volume of distribution at steady state in Beagle dog at 2.5 mg/kg, po or 0.5 mg/kg, iv; type: ADME, organism-based, Canis lupus familiaris; details: in vivo
[13] = AUC (0 to infinity) in mouse at 10 mg/kg, po; type: ADME, organism-based; design: time infinity, dose 10 mg/kg, route po; details: in vivo
[14] = Tmax in Beagle dog at 2.5 mg/kg, po; type: ADME, organism-based, Canis lupus familiaris; details: in vivo
[15] = Protein binding in rat plasma; type: ADME, cell-free; details: read-out: PPB (converted)
[16] = Volume of distribution at steady state in rat at 5 mg/kg, po or 1.25 mg/kg, iv; type: ADME, organism-based; details: in vivo
[17] = Tmax in mouse at 10 mg/kg, po; type: ADME, organism-based; details: in vivo
[18] = Half life in mouse at 10 mg/kg, po or 2.5 mg/kg, iv; type: ADME, organism-based; details: in vivo
[19] = Oral bioavailability in mouse at 10 mg/kg; type: ADME, organism-based; details: in vivo
[20] = AUC (0 to infinity) in Beagle dog at 2.5 mg/kg, po; type: ADME, organism-based, Canis lupus familiaris; design: time infinity, dose 2.5 mg/kg, route po; details: in vivo
[21] = Protein binding in dog plasma; type: ADME, cell-free, Canis lupus familiaris; details: read-out: PPB (converted)
[22] = Protein binding in human plasma; type: ADME, cell-free; details: read-out: PPB (converted)
[23] = Oral bioavailability in Beagle dog at 2.5 mg/kg; type: ADME, organism-based, Canis lupus familiaris; details: in vivo
[24] = Half life in rat at 5 mg/kg, po or 1.25 mg/kg, iv; type: ADME, organism-based; details: in vivo
[25] = Intrinsic clearance in human hepatocytes; type: ADME, cell-based, Hepatocyte; details: read-out: CLH
[26] = Cmax in mouse at 10 mg/kg, po; type: ADME, organism-based; design: dose 10 mg/kg, route po; details: in vivo
[27] = Cmax in rat at 5 mg/kg, po; type: ADME, organism-based; design: dose 5 mg/kg, route po; details: in vivo
[28] = Half life in Beagle dog at 2.5 mg/kg, po or 0.5 mg/kg, iv; type: ADME, organism-based, Canis lupus familiaris; details: in vivo
[29] = Intrinsic clearance in rat hepatocytes; type: ADME, cell-based, Hepatocyte; details: read-out: CLH
[30] = Volume of distribution at steady state in mouse at 10 mg/kg, po or 2.5 mg/kg, iv; type: ADME, organism-based; details: in vivo
[31] = Intrinsic clearance in mouse liver microsomes; type: ADME, Microsome; details: read-out: CLH
[32] = AUC (0 to infinity) in rat at 5 mg/kg, po; type: ADME, organism-based; design: time infinity, dose 5 mg/kg, route po; details: in vivo
[33] = Protein binding in mouse plasma; type: ADME, cell-free; details: read-out: PPB (converted)
[34] = Intrinsic clearance in dog hepatocytes; type: ADME, cell-based, Canis lupus familiaris, Hepatocyte; details: read-out: CLH

Compound: C[C@@H]1Cc2nn3c(c2CN1C(=O)Nc1ccc(F)c(C#N)c1)C(=O)N(C)C[C@H](F)C3
- CLint scaled [1]: < 6 mL/min/kg
- CLint scaled [3]: 31 mL/min/kg
- CLint scaled [4]: < 8 mL/min/kg
- logD [5]: 1.96

Compound: CN1C(=O)c2c3c(nn2CCC1CO)CCN(C(=O)Nc1ccc(F)c(Cl)c1)C3 (racemic)
- CLint scaled [1]: 9 mL/min/kg
- solubility thermodynamic [2]: 189 µM (≈ 79.7 µg/mL)

Compound: CN1OC(CO)Cn2nc3c(c2C1=O)CN(C(=O)Nc1ccc(F)c(Cl)c1)CC3 (racemic)
- CLint scaled [1]: < 7 mL/min/kg
- EC50 [6]: 9 nM
- solubility thermodynamic [2]: 169 µM (≈ 71.6 µg/mL)

Compound: CN1CC(N(C)C)Cn2nc3c(c2C1=O)CN(C(=O)Nc1ccc(F)c(Cl)c1)CC3 (racemic)
- CLint scaled [1]: 14 mL/min/kg
- solubility thermodynamic [2]: 187 µM (≈ 81.3 µg/mL)

Compound: C[C@@H]1Cc2nn3c(c2CN1C(=O)Nc1ccc(F)c(C#N)c1)C(=O)N(C)C[C@@H](F)C3
- Ratio EC50 [7]: 1.5
- CLint scaled [1]: < 6 mL/min/kg
- Cmax [8]: 1150 ng/mL
- bioavailability [9]: 54%
- CLint scaled [10]: 101 mL/min/kg
- Tmax [11]: 1.33 h
- Vdss [12]: 1 L/kg
- AUC(0-inf) [13]: 1930 ng·h/mL
- Tmax [14]: 2 h
- fraction unbound [15]: 0.38
- Vdss [16]: 2.09 L/kg
- Tmax [17]: 0.5 h
- half-life [18]: 0.51 h
- bioavailability [19]: 44%
- AUC(0-inf) [20]: 7000 ng·h/mL
- CLint scaled [3]: 44 mL/min/kg
- fraction unbound [21]: 0.23
- fraction unbound [22]: 0.19
- bioavailability [23]: 47%
- half-life [24]: 1.92 h
- CLint scaled [25]: 7.7 mL/min/kg
- Cmax [26]: 1270 ng/mL
- solubility thermodynamic [2]: 72 µM (≈ 29.8 µg/mL)
- Cmax [27]: 98 ng/mL
- half-life [28]: 4.3 h
- CLint scaled [29]: 57 mL/min/kg
- Vdss [30]: 0.99 L/kg
- CLint scaled [4]: < 6 mL/min/kg
- CLint scaled [31]: 28 mL/min/kg
- AUC(0-inf) [32]: 697 ng·h/mL
- fraction unbound [33]: 0.34
- CLint scaled [34]: < 6.4 mL/min/kg
- logD [5]: 1.95

Compound: CN1CC(F)(F)Cn2nc3c(c2C1=O)CN(C(=O)Nc1ccc(F)c(Cl)c1)CC3
- CLint scaled [1]: 8.1 mL/min/kg
- solubility thermodynamic [2]: 181 µM (≈ 77.4 µg/mL)

Compound: C[C@@H]1Cc2nn3c(c2CN1C(=O)Nc1ccc(F)c(C#N)c1)C(=O)N(C)O[C@@H](CF)C3
- Ratio EC50 [7]: 2

Compound: CC1CN(C)C(=O)c2c3c(nn2C1)CCN(C(=O)Nc1ccc(F)c(Cl)c1)C3 (racemic)
- CLint scaled [1]: 28 mL/min/kg
- solubility thermodynamic [2]: 182 µM (≈ 73.9 µg/mL)

Compound: CN1CCCCn2nc3c(c2C1=O)CN(C(=O)Nc1ccc(F)c(Cl)c1)CC3
- CLint scaled [1]: 16 mL/min/kg
- solubility thermodynamic [2]: > 200 µM

Compound: CN1CC(F)Cn2nc3c(c2C1=O)CN(C(=O)Nc1ccnc(Br)c1F)CC3 (racemic)
- CLint scaled [1]: 5 mL/min/kg
- solubility thermodynamic [2]: 170 µM (≈ 77.4 µg/mL)

Compound: CN1CC(CO)Cn2nc3c(c2C1=O)CN(C(=O)Nc1ccc(F)c(Cl)c1)CC3 (racemic)
- CLint scaled [1]: < 5 mL/min/kg
- solubility thermodynamic [2]: 191 µM (≈ 80.6 µg/mL)

Compound: CN1CC(C(F)F)Cn2nc3c(c2C1=O)CN(C(=O)Nc1ccc(F)c(Cl)c1)CC3 (racemic)
- CLint scaled [1]: 15 mL/min/kg
- solubility thermodynamic [2]: 175 µM (≈ 77.3 µg/mL)

Compound: CN1CCCn2nc3c(c2C1=O)CN(C(=O)Nc1ccc(F)c(Cl)c1)CC3
- CLint scaled [1]: 11 mL/min/kg
- solubility thermodynamic [2]: 195 µM (≈ 76.4 µg/mL)

The next lines start with the values.

- CLint scaled [1]: 17 mL/min/kg
- solubility thermodynamic [2]: 175 µM (≈ 77.6 µg/mL)
Compound: CN1CC(F)Cn2nc3c(c2C1=O)CN(C(=O)Nc1ccc(F)c(C(F)(F)F)c1)CC3 (racemic)

- CLint scaled [1]: 4.7 mL/min/kg
- solubility thermodynamic [2]: 195 µM (≈ 82.3 µg/mL)
Compound: CN1CCC(CO)n2nc3c(c2C1=O)CN(C(=O)Nc1ccc(F)c(Cl)c1)CC3 (racemic)

- CLint scaled [1]: 12 mL/min/kg
- solubility thermodynamic [2]: 183 µM (≈ 75 µg/mL)
Compound: CN1CC(F)Cn2nc3c(c2C1=O)CN(C(=O)Nc1ccc(F)c(Cl)c1)CC3 (racemic)

- CLint scaled [1]: 22 mL/min/kg
- solubility thermodynamic [2]: 191 µM (≈ 86.8 µg/mL)
Compound: CN1CC(F)Cn2nc3c(c2C1=O)CN(C(=O)Nc1ccc(F)c(Br)c1)CC3 (racemic)

- CLint scaled [1]: 26 mL/min/kg
- solubility thermodynamic [2]: 179 µM (≈ 67.6 µg/mL)
Compound: CN1CCn2nc3c(c2C1=O)CN(C(=O)Nc1ccc(F)c(Cl)c1)CC3

- CLint scaled [1]: 5.4 mL/min/kg
- solubility thermodynamic [2]: 181 µM (≈ 85.4 µg/mL)
Compound: CN1CC(OCC(F)F)Cn2nc3c(c2C1=O)CN(C(=O)Nc1ccc(F)c(Cl)c1)CC3 (racemic)

- CLint scaled [1]: 5.2 mL/min/kg
- solubility thermodynamic [2]: 179 µM (≈ 71.7 µg/mL)
Compound: CN1CC(F)Cn2nc3c(c2C1=O)CN(C(=O)Nc1ccc(F)c(C#N)c1)CC3 (racemic)

Source: ChEMBL document CHEMBL5113429, “Diazepinone HBV capsid assembly modulators” (Bioorg Med Chem Lett, 2022)
